Values belong to the compound of their own block, whether it stands above or below them.
How the values were obtained:
Details in all cases: binder
CAMKK2 = CAMKK2 (Homo sapiens, UniProt Q96RR4)
CDC42BPA = CDC42BPA (Homo sapiens, UniProt Q5VT25)
CDC42BPG = CDC42BPG (Homo sapiens, UniProt Q6DT37)
CDK4 = CDK4 (Homo sapiens, UniProt P11802)
CDK6 = CDK6 (Homo sapiens, UniProt Q00534)
CDKL5 = CDKL5 (Homo sapiens, UniProt O76039)
DAPK3 = DAPK3 (Homo sapiens, UniProt O43293)
DCLK1 = DCLK1 (Homo sapiens, UniProt O15075)
DMPK = DMPK (Homo sapiens, UniProt Q09013)
GSK3B = GSK3B (Homo sapiens, UniProt P49841)
JAK1 = JAK1 (Homo sapiens, UniProt P23458)
MAP2K1 = MAP2K1 (Homo sapiens, UniProt Q02750)
MAPK11 = MAPK11 (Homo sapiens, UniProt Q15759)
MAPK3 = MAPK3 (Homo sapiens, UniProt P27361)
Chain of MAPK3 (P27361 whole entry): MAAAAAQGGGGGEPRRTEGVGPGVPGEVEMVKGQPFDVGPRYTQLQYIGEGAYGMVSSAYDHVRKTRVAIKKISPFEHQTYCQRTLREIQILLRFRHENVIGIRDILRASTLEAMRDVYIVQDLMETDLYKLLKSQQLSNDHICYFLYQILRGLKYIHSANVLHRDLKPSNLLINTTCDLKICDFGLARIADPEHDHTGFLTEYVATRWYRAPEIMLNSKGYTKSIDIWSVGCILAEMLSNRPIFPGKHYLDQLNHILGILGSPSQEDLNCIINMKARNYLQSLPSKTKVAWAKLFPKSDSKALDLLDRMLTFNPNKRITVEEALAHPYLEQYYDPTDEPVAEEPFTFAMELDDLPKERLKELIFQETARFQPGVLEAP

MAPK6 = MAPK6 (Homo sapiens, UniProt Q16659)
MERTK = MERTK (Homo sapiens, UniProt Q12866)
MYLK = MYLK (Homo sapiens, UniProt Q15746)
Chain of MYLK (Q15746 whole entry): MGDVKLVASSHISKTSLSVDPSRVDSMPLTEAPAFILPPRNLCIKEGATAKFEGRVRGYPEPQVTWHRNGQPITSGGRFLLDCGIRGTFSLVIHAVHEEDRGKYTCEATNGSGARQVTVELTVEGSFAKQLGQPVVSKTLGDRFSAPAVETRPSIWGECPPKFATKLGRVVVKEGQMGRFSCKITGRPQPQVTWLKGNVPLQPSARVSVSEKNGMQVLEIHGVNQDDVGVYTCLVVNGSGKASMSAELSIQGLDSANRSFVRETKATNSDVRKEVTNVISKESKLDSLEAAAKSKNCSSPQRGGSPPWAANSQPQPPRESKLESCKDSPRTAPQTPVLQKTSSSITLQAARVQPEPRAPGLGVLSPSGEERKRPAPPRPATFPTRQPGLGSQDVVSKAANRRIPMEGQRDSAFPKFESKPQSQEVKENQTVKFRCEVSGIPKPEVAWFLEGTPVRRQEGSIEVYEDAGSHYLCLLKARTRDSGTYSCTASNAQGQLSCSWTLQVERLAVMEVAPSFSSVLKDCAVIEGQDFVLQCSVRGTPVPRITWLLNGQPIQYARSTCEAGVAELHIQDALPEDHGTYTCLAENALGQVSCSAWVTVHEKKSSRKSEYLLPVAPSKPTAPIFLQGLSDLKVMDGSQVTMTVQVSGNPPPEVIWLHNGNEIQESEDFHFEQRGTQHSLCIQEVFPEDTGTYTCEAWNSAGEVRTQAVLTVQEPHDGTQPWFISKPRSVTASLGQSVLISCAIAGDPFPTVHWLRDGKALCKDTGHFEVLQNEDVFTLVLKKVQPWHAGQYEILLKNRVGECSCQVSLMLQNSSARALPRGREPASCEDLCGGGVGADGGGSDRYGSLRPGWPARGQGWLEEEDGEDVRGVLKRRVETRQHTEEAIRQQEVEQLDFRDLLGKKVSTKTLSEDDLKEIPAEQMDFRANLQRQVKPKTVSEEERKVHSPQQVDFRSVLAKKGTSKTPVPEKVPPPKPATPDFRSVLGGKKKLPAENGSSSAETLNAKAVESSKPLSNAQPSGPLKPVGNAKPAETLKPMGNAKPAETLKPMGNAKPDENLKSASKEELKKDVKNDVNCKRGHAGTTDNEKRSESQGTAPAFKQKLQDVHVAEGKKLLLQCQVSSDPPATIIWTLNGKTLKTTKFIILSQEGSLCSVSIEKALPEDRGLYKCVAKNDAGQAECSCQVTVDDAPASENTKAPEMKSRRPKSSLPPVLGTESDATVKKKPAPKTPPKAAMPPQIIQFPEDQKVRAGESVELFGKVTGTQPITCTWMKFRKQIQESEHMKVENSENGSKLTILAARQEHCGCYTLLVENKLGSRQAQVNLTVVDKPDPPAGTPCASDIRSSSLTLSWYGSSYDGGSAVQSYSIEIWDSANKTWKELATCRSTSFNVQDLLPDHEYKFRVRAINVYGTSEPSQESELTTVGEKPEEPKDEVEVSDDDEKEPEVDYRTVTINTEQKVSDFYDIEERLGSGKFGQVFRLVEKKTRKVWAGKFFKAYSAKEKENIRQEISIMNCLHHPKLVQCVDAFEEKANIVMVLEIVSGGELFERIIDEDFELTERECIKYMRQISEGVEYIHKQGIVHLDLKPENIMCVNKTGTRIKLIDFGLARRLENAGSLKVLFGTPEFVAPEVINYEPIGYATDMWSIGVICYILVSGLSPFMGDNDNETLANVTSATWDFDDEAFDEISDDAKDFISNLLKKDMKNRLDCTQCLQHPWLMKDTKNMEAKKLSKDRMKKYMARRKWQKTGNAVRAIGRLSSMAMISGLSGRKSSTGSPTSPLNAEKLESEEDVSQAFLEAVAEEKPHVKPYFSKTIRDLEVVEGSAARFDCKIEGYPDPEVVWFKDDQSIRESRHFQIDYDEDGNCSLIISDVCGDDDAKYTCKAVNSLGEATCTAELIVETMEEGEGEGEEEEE

MYLK2 = MYLK2 (Homo sapiens, UniProt Q9H1R3)
Chain of MYLK2 (Q9H1R3 whole entry): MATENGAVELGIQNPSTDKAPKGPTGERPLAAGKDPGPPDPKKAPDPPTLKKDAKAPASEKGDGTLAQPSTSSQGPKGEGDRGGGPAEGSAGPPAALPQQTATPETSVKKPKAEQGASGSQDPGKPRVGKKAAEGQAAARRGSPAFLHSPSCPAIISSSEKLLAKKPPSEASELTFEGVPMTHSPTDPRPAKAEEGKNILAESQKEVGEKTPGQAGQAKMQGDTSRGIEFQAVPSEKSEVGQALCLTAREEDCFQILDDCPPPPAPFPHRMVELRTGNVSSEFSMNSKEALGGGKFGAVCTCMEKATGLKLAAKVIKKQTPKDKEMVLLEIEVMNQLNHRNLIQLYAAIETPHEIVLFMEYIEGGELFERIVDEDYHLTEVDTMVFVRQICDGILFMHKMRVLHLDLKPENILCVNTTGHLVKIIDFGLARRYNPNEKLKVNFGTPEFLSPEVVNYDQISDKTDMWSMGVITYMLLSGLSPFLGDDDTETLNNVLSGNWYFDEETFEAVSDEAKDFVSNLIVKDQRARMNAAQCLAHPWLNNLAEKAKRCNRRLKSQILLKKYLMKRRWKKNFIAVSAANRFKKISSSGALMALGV

NEK1 = NEK1 (Homo sapiens, UniProt Q96PY6)
PAK6 = PAK6 (Homo sapiens, UniProt Q9NQU5)
PDPK1 = PDPK1 (Homo sapiens, UniProt O15530)
SIK2 = SIK2 (Homo sapiens, UniProt Q9H0K1)
SRPK2 = SRPK2 (Homo sapiens, UniProt P78362)
STK38 = STK38 (Homo sapiens, UniProt Q15208)
Chain of STK38 (Q15208 whole entry): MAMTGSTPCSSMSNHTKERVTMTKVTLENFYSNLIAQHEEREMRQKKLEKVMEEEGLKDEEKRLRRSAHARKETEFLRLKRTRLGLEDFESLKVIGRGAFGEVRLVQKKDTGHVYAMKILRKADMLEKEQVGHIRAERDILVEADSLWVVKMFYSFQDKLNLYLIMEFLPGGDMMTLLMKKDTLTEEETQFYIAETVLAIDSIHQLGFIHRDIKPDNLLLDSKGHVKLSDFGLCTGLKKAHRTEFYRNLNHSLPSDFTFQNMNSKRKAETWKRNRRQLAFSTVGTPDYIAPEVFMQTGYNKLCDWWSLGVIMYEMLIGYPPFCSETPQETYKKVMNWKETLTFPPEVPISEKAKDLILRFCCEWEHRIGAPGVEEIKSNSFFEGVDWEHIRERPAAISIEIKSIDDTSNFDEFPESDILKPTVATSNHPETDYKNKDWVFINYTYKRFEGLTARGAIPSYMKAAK

TRIB1 = TRIB1 (Homo sapiens, UniProt Q96RU8)
TYRO3 = TYRO3 (Homo sapiens, UniProt Q06418)
ACVR2A = ACVR2A (Homo sapiens, UniProt P27037)
ACVRL1 = ACVRL1 (Homo sapiens, UniProt P37023)
Chain of ACVRL1 (P37023 whole entry): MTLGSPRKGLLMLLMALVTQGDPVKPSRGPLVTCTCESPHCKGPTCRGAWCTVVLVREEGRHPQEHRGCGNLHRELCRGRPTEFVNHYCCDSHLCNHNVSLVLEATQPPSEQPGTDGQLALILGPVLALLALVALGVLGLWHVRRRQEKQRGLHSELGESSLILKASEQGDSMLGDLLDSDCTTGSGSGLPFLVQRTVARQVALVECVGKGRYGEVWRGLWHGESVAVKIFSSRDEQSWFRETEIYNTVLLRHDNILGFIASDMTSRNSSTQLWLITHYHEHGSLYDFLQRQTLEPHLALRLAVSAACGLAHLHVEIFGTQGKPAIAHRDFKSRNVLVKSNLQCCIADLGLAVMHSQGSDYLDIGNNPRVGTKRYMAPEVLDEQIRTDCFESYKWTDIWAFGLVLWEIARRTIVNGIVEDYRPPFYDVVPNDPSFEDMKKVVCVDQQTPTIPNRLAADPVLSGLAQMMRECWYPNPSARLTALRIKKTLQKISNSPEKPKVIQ

GSG2 = GSG2 (Homo sapiens, UniProt Q8TF76)
STK3 = STK3 (Homo sapiens, UniProt Q13188)
TGFBR2 = TGFBR2 (Homo sapiens, UniProt P37173)
Chain of TGFBR2 (P37173 whole entry): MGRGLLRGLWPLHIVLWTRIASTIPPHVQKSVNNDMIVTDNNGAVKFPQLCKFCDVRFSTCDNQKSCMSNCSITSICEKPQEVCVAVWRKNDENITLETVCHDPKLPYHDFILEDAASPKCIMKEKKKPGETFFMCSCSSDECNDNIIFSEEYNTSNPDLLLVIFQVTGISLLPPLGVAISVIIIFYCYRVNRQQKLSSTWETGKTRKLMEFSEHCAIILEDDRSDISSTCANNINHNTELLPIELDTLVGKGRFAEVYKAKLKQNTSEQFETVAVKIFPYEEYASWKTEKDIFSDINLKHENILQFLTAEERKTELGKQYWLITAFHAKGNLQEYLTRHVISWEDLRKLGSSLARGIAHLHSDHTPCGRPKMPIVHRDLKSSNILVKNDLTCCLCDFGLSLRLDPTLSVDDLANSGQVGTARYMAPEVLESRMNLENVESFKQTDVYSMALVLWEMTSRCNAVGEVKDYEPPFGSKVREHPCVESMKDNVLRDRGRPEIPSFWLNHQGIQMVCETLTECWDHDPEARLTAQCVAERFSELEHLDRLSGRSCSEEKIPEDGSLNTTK

Chain of CDK6 (Q00534 whole entry): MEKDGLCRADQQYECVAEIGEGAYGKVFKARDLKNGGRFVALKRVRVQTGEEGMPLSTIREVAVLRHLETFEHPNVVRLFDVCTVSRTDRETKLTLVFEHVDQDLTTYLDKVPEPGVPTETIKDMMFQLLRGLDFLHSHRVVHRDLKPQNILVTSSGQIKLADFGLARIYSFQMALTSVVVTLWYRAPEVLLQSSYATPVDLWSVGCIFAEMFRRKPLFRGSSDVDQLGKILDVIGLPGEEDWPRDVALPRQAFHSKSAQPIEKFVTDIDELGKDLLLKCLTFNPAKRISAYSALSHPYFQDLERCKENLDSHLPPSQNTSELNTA

ΔTm inhibitor 2 (CAMKK2): 0.4 °C | ΔTm inhibitor 2 (CDC42BPA): -0.4 °C | ΔTm inhibitor 2 (CDC42BPG): -1.3 °C | ΔTm inhibitor 2 (CDK4): -0.6 °C | ΔTm inhibitor 2 (CDK6): 0.4 °C | ΔTm inhibitor 2 (CDKL5): 1.1 °C | ΔTm inhibitor 2 (DAPK3): 0.9 °C | ΔTm inhibitor 2 (DCLK1): -0.4 °C | ΔTm inhibitor 2 (DMPK): 1.0 °C | ΔTm inhibitor 2 (GSK3B): 1.4 °C | ΔTm inhibitor 2 (JAK1): 0.1 °C | ΔTm inhibitor 2 (MAP2K1): -0.1 °C | ΔTm inhibitor 2 (MAPK11): 0.0 °C | ΔTm inhibitor 2 (MAPK3): -0.1 °C | ΔTm inhibitor 2 (MAPK6): 0.0 °C | ΔTm inhibitor 2 (MERTK): 0.0 °C | ΔTm inhibitor 2 (MYLK): -0.2 °C | ΔTm inhibitor 2 (MYLK2): -1.4 °C | ΔTm inhibitor 2 (NEK1): -0.3 °C | ΔTm inhibitor 2 (PAK6): -0.9 °C | ΔTm inhibitor 2 (PDPK1): 0.2 °C | ΔTm inhibitor 2 (SIK2): -0.2 °C | ΔTm inhibitor 2 (SRPK2): -0.2 °C | ΔTm inhibitor 2 (STK38): 0.4 °C | ΔTm inhibitor 2 (TRIB1): 0.2 °C | ΔTm inhibitor 2 (TYRO3): 0.1 °C
Compound: CCN1/C(=C/C(C)=O)Sc2ccc(OC)cc21 [compound 2, TG003]

ΔTm inhibitor 4 (ACVR2A): 0.3 °C | ΔTm inhibitor 4 (ACVRL1): 1.2 °C | ΔTm inhibitor 4 (CDC42BPA): 0.6 °C | ΔTm inhibitor 4 (CDK4): 1.5 °C | ΔTm inhibitor 4 (CDKL5): 0.3 °C | ΔTm inhibitor 4 (GSG2): 4.0 °C | ΔTm inhibitor 4 (MAP2K1): 0.2 °C | ΔTm inhibitor 4 (MYLK): 0.1 °C | ΔTm inhibitor 4 (MYLK2): 0.0 °C | ΔTm inhibitor 4 (NEK1): 0.6 °C | ΔTm inhibitor 4 (PDPK1): 0.3 °C | ΔTm inhibitor 4 (SIK2): 0.4 °C | ΔTm inhibitor 4 (SRPK2): 0.4 °C | ΔTm inhibitor 4 (STK3): 1.6 °C | ΔTm inhibitor 4 (TGFBR2): 2.0 °C | ΔTm inhibitor 4 (TRIB1): 0.1 °C
Compound: Nc1nccc(-c2ccc3noc(-c4ccc(Cl)cc4)c3c2)n1 [compound 4, K00972]

ΔTm inhibitor 1 (ACVR2A): 4.0 °C | ΔTm inhibitor 1 (ACVRL1): 11.1 °C | ΔTm inhibitor 1 (CAMKK2): 2.5 °C | ΔTm inhibitor 1 (CDC42BPG): 0.6 °C | ΔTm inhibitor 1 (CDK6): 0.1 °C | ΔTm inhibitor 1 (DAPK3): 2.8 °C | ΔTm inhibitor 1 (DCLK1): 0.6 °C | ΔTm inhibitor 1 (DMPK): 1.0 °C | ΔTm inhibitor 1 (GSG2): 6.5 °C | ΔTm inhibitor 1 (GSK3B): 4.1 °C | ΔTm inhibitor 1 (JAK1): 6.4 °C | ΔTm inhibitor 1 (MAPK11): 0.3 °C | ΔTm inhibitor 1 (MAPK3): 0.5 °C | ΔTm inhibitor 1 (MAPK6): 0.4 °C | ΔTm inhibitor 1 (MERTK): 1.3 °C | ΔTm inhibitor 1 (PAK6): 1.1 °C | ΔTm inhibitor 1 (STK3): 2.9 °C | ΔTm inhibitor 1 (STK38): 1.1 °C | ΔTm inhibitor 1 (TGFBR2): 13.7 °C | ΔTm inhibitor 1 (TYRO3): 0.4 °C
Compound: CC(=O)c1cccc(-c2cnc3ccc(NCC4CC4)nn23)c1 [compound 1, K00135]

Reference: article doi:10.1101/2020.07.01.182642v1 (biorxiv, 2020)
